Activity calls are given as the source filed them. How the calls were made is not given here.
Tests used:
[1] = target: Hypoxia-inducible factor 1-alpha (Homo sapiens) (UniProt Q16665); test: potency against HIF reporters across cell lines – luminescence, panel, selectivity assay for HIF-2a inhibitor project, dose response (AID 651581); conditions: human cell HIF reporter, HIF-1a
[2] = target: Endothelial PAS domain-containing protein 1 (Homo sapiens) (UniProt Q99814); test: as above; conditions: human cell HIF reporter

Sequence of Hypoxia-inducible factor 1-alpha (Homo sapiens) (Q16665 whole entry, looked up, the tested form may be a part): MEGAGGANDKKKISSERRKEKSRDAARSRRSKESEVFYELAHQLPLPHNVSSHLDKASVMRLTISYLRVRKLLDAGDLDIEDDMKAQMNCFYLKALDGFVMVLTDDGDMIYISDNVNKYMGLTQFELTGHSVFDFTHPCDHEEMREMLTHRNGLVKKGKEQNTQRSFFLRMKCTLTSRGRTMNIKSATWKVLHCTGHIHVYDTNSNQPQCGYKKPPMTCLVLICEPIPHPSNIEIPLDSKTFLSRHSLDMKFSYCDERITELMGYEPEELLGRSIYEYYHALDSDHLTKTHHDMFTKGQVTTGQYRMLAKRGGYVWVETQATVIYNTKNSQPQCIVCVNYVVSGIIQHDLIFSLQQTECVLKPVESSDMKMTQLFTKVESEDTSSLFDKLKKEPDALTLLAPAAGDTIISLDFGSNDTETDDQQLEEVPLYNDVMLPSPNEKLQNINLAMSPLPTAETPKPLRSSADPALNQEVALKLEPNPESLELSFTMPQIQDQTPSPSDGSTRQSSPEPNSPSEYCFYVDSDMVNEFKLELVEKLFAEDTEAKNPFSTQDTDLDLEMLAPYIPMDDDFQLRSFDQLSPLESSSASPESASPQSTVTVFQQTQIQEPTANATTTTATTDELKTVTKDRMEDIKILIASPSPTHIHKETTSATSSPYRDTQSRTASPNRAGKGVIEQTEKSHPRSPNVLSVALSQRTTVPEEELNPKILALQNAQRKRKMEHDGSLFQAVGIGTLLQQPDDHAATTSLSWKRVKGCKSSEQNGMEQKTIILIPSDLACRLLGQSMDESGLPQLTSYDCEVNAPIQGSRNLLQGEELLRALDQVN

Structure (SMILES)	IC50 ([1]; mean of runs)	IC50 ([1]; run 1) [µM]	IC50 ([1]; run 2) [µM]	IC50 ([2]; HIF-2a PANC, mean of runs)	IC50 ([2]; HIF-2a PANC, run 1) [µM]	IC50 ([2]; HIF-2a PANC, run 2) [µM]	IC50 ([2]; HIF-2a, mean of runs)	IC50 ([2]; HIF-2a, run 1) [µM]	IC50 ([2]; HIF-2a, run 2) [µM]
CCOc1ccc(-c2cc(CCCC(=O)Nc3cc(OC)ccc3OC)no2)cc1	inactive	4.99	5.07	0.447 µM	0.529	0.365	1.99 µM	2.32	1.66
COc1cc(N2C(=O)C=CC2=O)c(OC)cc1Cl	36.8 µM	33.2	40.4	inactive	38.5	45.2	8.55 µM	8.69	8.4
COc1ccc(OCc2cccc(C(=O)O)c2)cc1	26.3 µM	19	33.7	–	> 99	< 30	0.781 µM	0.76	0.802
Cc1nc2cc(-c3cccc(F)c3)nn2c(C)c1CCC(=O)NC(C)c1ccc2c(c1)OCCO2 (centres undefined)	18.6 µM	19.2	18	inactive	41.1	11.9	4.38 µM	4.45	4.31
COc1cc(/C=N/O)ccc1OCc1ccc(C(=O)O)cc1	–	> 99	> 99	> 99 µM (inactive)	> 99	> 99	4.29 µM	5.58	3
O=C(Nc1cc(S(=O)(=O)N2CCOCC2)ccc1Cl)c1cc([N+](=O)[O-])ccc1Cl	inactive	23.9	17.6	–	> 99	80.5	inactive	15.1	13.9
COCCn1c(C)cc(C(=O)CSc2nnc(C)s2)c1C	inactive	8.55	18.9	7.96 µM	3.81	12.1	5.99 µM	6.5	5.48
CC(C)(C)c1ccc(/C=N/Nc2ccc(C(=O)O)cc2)cc1	inactive	52.5	40.5	< 0.3 µM	< 1	< 0.3	–	> 99	< 0.19
CN(C)S(=O)(=O)c1cccc(NC(=O)CSc2cccc3cccnc23)c1	34.4 µM	31.1	37.7	> 99 µM (inactive)	> 99	> 99	5.4 µM	5.2	5.6
Cc1ccc(S(=O)(=O)Nc2cccc3cccnc23)cc1	–	> 99	> 99	> 99 µM (inactive)	> 99	> 99	1.12 µM	1.15	1.09
COc1ccc(/C=N\n2nnc3ccccc32)cc1	< 30 µM (inactive)	< 30	< 30	7.03 µM	7.48	6.58	< 30 µM (inactive)	< 30	< 30
O=C1C=CC(=O)N1c1cccc(-c2ccccc2)c1	31.4 µM	26.2	36.6	–	> 99	58.5	8.09 µM	7.96	8.22
C=C1C(=O)OC2CC3(C)OC3C3OC3C3=CC(OC3=O)C12 (centres undefined)	36.4 µM	33.9	38.9	–	> 99	59.7	inactive	11.4	10.3
COc1ccc(OCc2cccc(C(=O)NN)c2)cc1	–	> 99	> 99	> 99 µM (inactive)	> 99	> 99	7.89 µM	7.68	8.1
O=C(Nc1ccc(F)cc1)c1nc(S(=O)(=O)Cc2ccccc2)ncc1Cl	inactive	14.6	16.7	inactive	26.2	22	7.59 µM	7.71	7.47
Cc1ccc(S(=O)(=O)Nc2cccc3cccnc23)c([N+](=O)[O-])c1	–	> 99	> 99	> 99 µM (inactive)	> 99	> 99	3.76 µM	3.87	3.66
CC(=O)c1ccc(NC(=O)c2cnn3ccccc23)cc1	inactive	12.9	20.6	18.4 µM	20.3	16.6	inactive	11.7	9.93
